Assay results taken from patent US20090305995A1, “AGONISTS AND ANTAGONISTS OF THE SOMATOSTATIN RECEPTOR” (Novartis AG, priority 2004, published 2009).
≈ marks a conversion by molar mass, not a printed value. Where two headings read alike, the source gives them in different places.

Legend:
Type in all cases: physicochemical
[1] = HT-logP o/w, high throughput assay based on artificial liquid membrane permeability
Text: To be absorbed and transported by passive diffusion, drugs must be sufficiently lipophilic to penetrate the lipid cores of membranes, but not too lipophilic that they get retained and accumulated there. The lipophilictity of a compound is expressed by the octanol/water partition coefficient or distribution coefficient. A first approximation of substance polarity can either be given by computer assisted calculations giving Clog P values or by measurement of the partition coefficients in high-throughput assays (HT-log P o/w) (Faller et al., 2004; Wohnsland et al., 2001).
Octanol/water partition coefficients are measured in a high throughput assay based on artificial liquid membrane permeability. […] Still many approaches to calculate log P values are limited due to a lack of parameterization of certain fragments and fail with increasing molecular weight which implicates higher structural complexity. Similar problems and failures are observed in chromatographic determinations of log P: Peptides might undergo structural changes driven by interactions with the stationary phase. Decisive interactions between the stationary phase and the defolded analytes are therefore also based on the linear peptide sequence. For this reason measured HT-log P o/w values based on chromatographic assays employing stationary phases may lead to erroneous results.

[2] = high throughput solubility (HT-Solubility); settings: for water solubility (in words): see FIG. 10
[3] = high throughput permeability (HT-Permeability, log Pe); settings: PAMPA, Pe in cm/s
[4] = octanol/water, read-out: HT LogP ohw
[5] = pH 1, pH 1.0, read-out: HT-Solubility pH 1.0
[6] = pH 6.8, pH 6.8, read-out: HT-Solubility pH 6.8
[7] = pH 4, pH 4.0, read-out: HT-Permeability logPe pH 4.0 (converted)
[8] = pH 6.8, pH 6.8, read-out: HT-Permeability logPe pH 6.8 (converted)
[9] = pH 8, pH 8.0, read-out: HT-Permeability logPe pH 8.0 (converted)
[10] = octanol/water; read-out: HT LogP ohw

| SMILES | logP [1, 4] | solubility [2, 5] [µg/mL] | solubility [2, 6] [µg/mL] | water solubility (in words) [2] | Papp [3, 7] [×10⁻⁶ cm/s] | Papp [3, 8] [×10⁻⁶ cm/s] | Papp [3, 9] [×10⁻⁶ cm/s] | HT LogP ohw ([1]; octanol/water) | HT-Solubility pH 1.0 [2] [g 1-1] | HT-Solubility pH 6.8 [2] [g 1-1] | logP [1, 10] |
| --- | --- | --- | --- | --- | --- | --- | --- | --- | --- | --- | --- |
| CCCCN(C)C(=O)C[C@H](CCCCN)NC(=O)[C@@H](Cc1c[nH]c2ccccc12)NC(=O)C[C@H](Cc1ccccc1)NC(=O)CCC [Compound 42, Butyroyl-(S)-β^3-HPhe-(R)-Trp-(S)-β^3-HLys-methyl-butyl-amide] | 3.7 | 64.7 (≈ 100 µM) | 129 (≈ 200 µM) | highest solubility values | 1 | 2 | 5.01 |  |  |  |  |
| CCN(CC)C(=O)C[C@@H](NC(=O)C[C@H](CCCCN)NC(=O)[C@@H](Cc1c[nH]c2ccccc12)NC(=O)C[C@H](Cc1ccccc1)NC(=O)CCc1ccccc1)C(C)C [Compound 24, Dihydrocinnemoyl-(S)-β^3-HPhe-(R)-Trp-(S)-β^3-HLys-(R)-β^3-Leu-diethyl-amide] | 4.1 | 16.2 (≈ 20 µM) | 16.2 (≈ 20 µM) |  | 0.1 |  |  |  |  |  |  |
| CCCCCNC(=O)C[C@H](CCCCN)NC(=O)[C@@H](Cc1c[nH]c2ccccc12)NC(=O)C[C@H](Cc1ccccc1)NC(=O)CCC [Compound 55, Butyroyl-(S)-β^3-HPhe-(R)-Trp-(S)-β^3-HLys-pentyl-amide] | 3.7 | 64.7 (≈ 100 µM) | 12.9 (≈ 19.9 µM) |  | 2.51 | 0.1 |  |  |  |  |  |
| CCCCCN(C)C(=O)C[C@H](CCCCN)NC(=O)[C@@H](Cc1c[nH]c2ccccc12)NC(=O)C[C@H](Cc1ccccc1)NC(=O)CCC [Compound 41, Butyroyl-(S)-β^3-HPhe-(R)-Trp-(S)-β^3-HLys-methyl-pentyl-amide] | 3.6 | 132 (≈ 200 µM) | 132 (≈ 200 µM) | highest solubility values | 2.51 | 3.98 | 1 |  |  |  |  |
| CCCCCCN(C)C(=O)C[C@H](CCCCN)NC(=O)[C@@H](Cc1c[nH]c2ccccc12)N(Cc1ccccc1)C(=O)C[C@H](Cc1ccccc1)NC(=O)CC [Compound 68] | 5.5 | 75.1 (≈ 100 µM) | 15 (≈ 20 µM) | does not allow for good water solubilities | 0.1 |  |  |  |  |  |  |
| CCCCCCN(C)C(=O)C[C@H](CCCCN)NC(=O)[C@@H](Cc1c[nH]c2ccccc12)N(Cc1ccccc1)C(=O)C[C@H](Cc1ccccc1)NC(=O)CC [Compound 69, Propionyl-(S)-β^3-HPhe-(R)—N-Benzyl-Trp-(S)-β^3-HLys-methyl-hexyl-amide] |  |  |  | does not allow for good water solubilities |  |  |  | 5.1 | 0.0751 | 0.015 |  |
| CC(=O)N[C@H](CC(=O)N(C)[C@H](Cc1cn(C)c2ccccc12)C(=O)N[C@@H](CCCCN)CC(=O)N[C@@H]1CC(=O)O[C@@H]1C)Cc1ccccc1 [Compound 37, Ac—(S)-β^3-HPhe-(R)—N-Me-1-Me-Trp-(S)-β^3-HLys-(R)-4-amino-(R)-5-methyl-dihydro-furan-2-one] | 2.4 | 135 (≈ 200 µM) | 67.5 (≈ 100 µM) |  | 6.31 | 5.01 |  |  |  |  |  |
| CCCCCN(C)C(=O)C[C@H](CCCCN)NC(=O)[C@@H](Cc1c[nH]c2ccccc12)N(C)C(=O)C[C@H](Cc1ccccc1)NC(=O)CC [Compound 63, Propionyl-(S)-β^3-HPhe-(R)—N-Me-Trp-(S)-β^3-HLys-methyl-pentyl-amide] |  | 132 (≈ 200 µM) | 132 (≈ 200 µM) | highest solubility values |  |  |  |  |  |  | 3.9 |
| C[C@H]1OC(=O)C[C@H]1NC(=O)C[C@H](CCCCN)NC(=O)[C@@H](Cc1c[nH]c2ccccc12)NC(=O)C[C@@H](N)Cc1ccccc1 [Compound 29] |  |  |  |  |  |  |  | 3.3 | 0.121 | 0.121 |  |
| CC(C)[C@@H](CC(=O)N(C)CCc1ccccc1)NC(=O)C[C@H](CCCCN)NC(=O)[C@@H](Cc1c[nH]c2ccccc12)NC(=O)C[C@H](Cc1ccccc1)NC(=O)C12CC3CC(CC(C3)C1)C2 [Compound 27, Adamantoyl-(S)-β^3-HPhe-(R)-Trp-(S)-β^3-HLys-(R)-β^3-Leu-methyl-phenethyl-amide] |  | 45 (≈ 50 µM) | 9 (≈ 10 µM) |  |  |  |  |  |  |  |  |

The remaining lines, values ahead:

| logP [1, 4] | solubility [2, 5] [µg/mL] | solubility [2, 6] [µg/mL] | water solubility (in words) [2] | Papp [3, 7] [×10⁻⁶ cm/s] | Papp [3, 8] [×10⁻⁶ cm/s] | Papp [3, 9] [×10⁻⁶ cm/s] | HT LogP ohw ([1]; octanol/water) | HT-Solubility pH 1.0 [2] [g 1-1] | HT-Solubility pH 6.8 [2] [g 1-1] | logP [1, 10] | SMILES |
| --- | --- | --- | --- | --- | --- | --- | --- | --- | --- | --- | --- |
| 3.5 | 127 (≈ 200 µM) | 12.7 (≈ 20.1 µM) |  | 0.1 |  |  |  |  |  |  | CCCCNC(=O)C[C@H](CCCCN)NC(=O)[C@@H](Cc1c[nH]c2ccccc12)NC(=O)C[C@H](Cc1ccccc1)NC(=O)CCC [Compound 54, Butyroyl-(S)-β^3-HPhe-(R)-Trp-(S)-β^3-HLys-butyl-amide] |
| 2.8 | 115 (≈ 200 µM) | 115 (≈ 200 µM) |  | 1.26 |  | 1 |  |  |  |  | CCCC(=O)N[C@H](CC(=O)N[C@H](Cc1c[nH]c2ccccc12)C(=O)N[C@@H](CCCCN)CC(N)=O)Cc1ccccc1 [Compound 61, Butyroyl-(S)-β^3-HPhe-(R)-Trp-(S)-β^3-HLys-NH2] |
|  |  |  | medium to good |  |  | 3.98 | 3.4 | 0.1266 | 0.0316 |  | CCCCCNC(=O)C[C@H](CCCCN)NC(=O)[C@@H](Cc1c[nH]c2ccccc12)NC(=O)C[C@H](Cc1ccccc1)NC(=O)CC [Compound 51, Propionyl-(S)-β^3-HPhe-(R)-Trp-(S)-β^3-HLys-pentyl-amide] |
|  | 112 (≈ 200 µM) | 112 (≈ 200 µM) |  | 3.16 | 7.94 | 1.26 |  |  |  |  | CCC(=O)N[C@H](CC(=O)N[C@H](Cc1c[nH]c2ccccc12)C(=O)N[C@@H](CCCCN)CC(N)=O)Cc1ccccc1 [Compound 60, Propionyl-(S)-β^3-HPhe-(R)-Trp-(S)-β^3-HLys-NH2] |
| 3 | 127 (≈ 200 µM) | 126 (≈ 200 µM) | highest solubility values | 1 | 2 | 1.26 |  |  |  |  | CCCCN(C)C(=O)C[C@H](CCCCN)NC(=O)[C@@H](Cc1c[nH]c2ccccc12)NC(=O)C[C@H](Cc1ccccc1)NC(=O)CC [Compound 43, Propionyl-(S)-β^3-HPhe-(R)-Trp-(S)-β^3-HLys-methyl-butyl-amide] |
| 2.7 | 37.7 (≈ 50 µM) | 15.1 (≈ 20 µM) |  | 3.98 | 6.31 | 12.6 |  |  |  |  | C[C@@H](O)[C@@H](CC(N)=O)NC(=O)C[C@H](CCCCN)NC(=O)[C@@H](Cc1c[nH]c2ccccc12)NC(=O)C[C@H](Cc1ccccc1)NC(=O)CCc1ccccc1 [Compound 15, Dihydrocinnemoyl-(S)-β^3-HPhe-(R)-Trp-(S)-β^3-HLys-(R), (R)—HThr-NH2] |
|  |  |  | medium to good |  |  |  | 3.2 | 0.1236 | 0.0619 |  | CCCCCNC(=O)C[C@H](CCCCN)NC(=O)[C@@H](Cc1c[nH]c2ccccc12)NC(=O)C[C@H](Cc1ccccc1)NC(C)=O [Compound 45, Ace-(S)-β^3-HPhe-(R)-Trp-(S)-β^3-HLys-pentyl-amide] |
|  | 13.3 (≈ 20 µM) | 13.3 (≈ 20 µM) |  | 0.1 |  |  |  |  |  |  | CC(=O)N[C@H](CC(=O)N[C@H](Cc1c[nH]c2ccccc12)C(=O)N[C@@H](CCCCN)CC(=O)N[C@H](CC(N)=O)[C@@H](C)O)Cc1ccccc1 [Compound 2, Ac—(S)-β^3-HPhe-(R)-Trp-(S)-β^3-HLys-(R), (R)—HThr-NH2] |
|  | 124 (≈ 200 µM) | 124 (≈ 200 µM) |  | 1.58 |  | 2 |  |  |  |  | C[C@@H](O)[C@@H](CC(N)=O)NC(=O)C[C@H](CCCCN)NC(=O)[C@@H](Cc1c[nH]c2ccccc12)NC(=O)C[C@@H](N)Cc1ccccc1 [Compound 36, (S)-β^3-HPhe-(R)-Trp-(S)-β^3-HLys-(R), (R)—HThr-NH2] |
|  | 129 (≈ 200 µM) | 129 (≈ 200 µM) |  |  |  |  |  |  |  |  | CC(=O)N[C@H](CC(=O)N[C@H](Cc1c[nH]c2ccccc12)C(=O)N[C@@H](CCCCN)CC(=O)N[C@@H]1CC(=O)O[C@@H]1C)Cc1ccccc1 [Compound 7, Ac—(S)-β^3-HPhe-(R)-Trp-(S)-β^3-HLys-(R)-4-amino-(R)-5-methyl-dihydro-furan-2-one] |
|  | 127 (≈ 200 µM) |  | medium to good |  |  |  |  |  |  | 3.4 | CCCCCNC(=O)C[C@H](CCCCN)NC(=O)[C@@H](Cc1c[nH]c2ccccc12)NC(=O)C[C@H](Cc1ccccc1)NC(=O)CC [Compound 50] |
| 3.3 | 7.3 (≈ 9.97 µM) | 1.5 (≈ 2.05 µM) |  |  |  |  |  |  |  |  | C[C@@H](O)[C@@H](CC(N)=O)NC(=O)C[C@H](CCCCN)NC(=O)[C@@H](Cc1c[nH]c2ccccc12)NC(=O)C[C@H](Cc1ccccc1)NC(=O)C1CCCCC1 [Compound 26, Cyclohexanoyl-(S)-β^3-HPhe-(R)-Trp-(S)-β^3-HLys-(R), (R)—HThr-NH2] |
|  | 110 (≈ 200 µM) | 110 (≈ 200 µM) |  | 1 | 5.01 |  |  |  |  |  | CC(=O)N[C@H](CC(=O)N[C@H](Cc1c[nH]c2ccccc12)C(=O)N[C@@H](CCCCN)CC(N)=O)Cc1ccccc1 [Compound 58, Ace-(S)-β^3-HPhe-(R)-Trp-(S)-β^3-HLys-NH2] |
